Results reported in patent publication US10654843B2, “LMP7 inhibitors” (PRINCIPIA BIOPHARMA INC., priority 2014, dated 2020).
pIC50: −log10 of the molar value. Like-named read-outs stand apart in the source and are kept apart here.

How the values were obtained:
[1] = molecular target: T1, proteasome activity in primary human peripheral blood mononuclear cells (PBMC) (Homo sapiens, UniProt P28062); assay: Inhibition of proteasome activity in cells (Proteasome-Glo), PBMC; format: cell-based; conditions: 2 hr incubation, Suc-LLVY-aminoluciferin
T1 construct: endogenous in cells; host or cells: primary human PBMC
Protocol: (§1) The cell-based effects of the compound of the present disclosure on immunoproteasome were determined by measuring inhibition of proteasome activity in cells using the Proteasome-Glo™ Cell-Based Reagent (Promega, Madison Wis). The Proteasome-Glo™ assay contains a specific luminogenic proteasome substrate in a buffer optimized for cell permeabilization, proteasome activity, and luciferase activity. For the chymotrypsin-like activity, the peptide substrate is Suc-LLVY-aminoluciferin (Succinyl-leucine-leucine-valine-tyrosine-aminoluciferin). Cleavage of the substrate by proteasome results in luminescent signal which is proportional to the proteasome activity. The cell line THP-1 (a monocytic leukemia cell line enriched in immunoproteasome), the cell line HT-29 (a colorectal adenocarcinoma cell line enriched in constitutive proteasome), and primary human peripheral blood mononuclear cells (PBMC) were used to assess proteasome activity. Cells were seeded in a 96-well plate at 10,000 cells per well in RPMI 1640 high glucose medium with 10% fetal bovine serum (FBS). Compound dilutions were added to cells starting at a concentration of 5 uM and decreasing in tripling dilutions. The final DMSO concentration was 1%. The concentration range was adjusted as needed for compounds of different potencies. The cells treated with compounds were incubated for 2 hr at 37° C. in 5% CO2. At the end of the 2 hour incubation period, cells were transferred to white 384 well assay plates. 20 uL of Proteasome-Glo™ Reagent was added to each well and incubated for 10 minutes at room temperature. The plate was read in the Analyst HT instrument (Molecular Devices, Sunnyvale, Calif.) using luminescence mode. The percent inhibition of activity was plotted as a function of log compound concentration. The IC50 was then calculated for each compound using Prism software from GraphPad Software Inc. (San Diego, Calif).

[2] = molecular target: constitutive proteasome (B5c) (Homo sapiens, UniProt P20618+P28074); assay: Caliper-based proteasome assay, constitutive proteasome chymotrypsin-like activity; format: biochemical; conditions: human recombinant constitutive proteasome 0.3 nM, FAM-labeled peptide substrate 1 μM, room temperature 3 h
Protocol: (§2) A Caliper-based proteasome assay (Caliper Life Sciences, Hopkinton, Mass.) was used to measure inhibition of the chymotrypsin-like activity of both immunoproteasome (LMP7/B5i) and the constitutive proteasome (B5c) for a compound of Formula (I). Serial dilutions of test compounds were incubated with either human recombinant immunoproteasome or constitutive proteasome (0.3 nM enzyme) and a carboxyfluorescein (FAM)-labeled peptide substrate FAM-TYETFKSIMKKSPF-NH2 (1 μM) at room temperature for 3 h. The reaction buffer was 20 mM Hepes pH 7.4, 0.01% bovine serum albumin, 0.015% SDS, 0.5 mM EDTA, 1% DMSO. The reaction was then terminated with a buffer containing the known proteasome inhibitor carfilzomib at a concentration of 5 uM. The peptide cleavage reaction product was quantified on a Caliper LabChip 3000. Percent inhibition was calculated for each compound dilution and the concentration that produced 50% inhibition was calculated. This value is presented as the IC50.

[3] = molecular target: T2, proteasome activity in HT-29 cells (enriched in constitutive proteasome) (Homo sapiens, UniProt P28074); assay: Inhibition of proteasome activity in cells (Proteasome-Glo), HT-29; format: cell-based; conditions: 2 hr incubation, Suc-LLVY-aminoluciferin, read-out: HT29 IC50
T2 construct: endogenous in cells; host or cells: HT-29
Protocol: as §1

[4] = molecular target: T3, proteasome activity in HT-29 cells (Homo sapiens, UniProt P28074); assay: Durability of binding in cells, wash-out assay (Proteasome-Glo), HT-29; format: cell-based; conditions: 2 hours incubation, washout
T3 construct: endogenous in cells; host or cells: HT-29
Protocol: The durability of binding of proteasome inhibitors was assessed in cells using wash-out assays and the Proteasome-Glo™ Reagent kit. THP-1 cells, HT-29 cells, or PBMC were incubated with an 8-fold dilution series of inhibitor for 2 hours. Following 2 hours of incubation, cells were washed using 3 occasions of centrifugation followed by resuspension in culture medium. Following inhibitor washout, cells were returned to culture for either 30 minutes, 4 hours, or 18 hours. Cells were then transferred to white 384 plates, and 20 uL of Proteasome-Glo™ Reagent was added to each well for 10 minutes. Plates were then read on an Analyst HT plate reader using luminescence mode. The percent inhibition of activity was plotted as a function of log compound concentration. The IC50 was then calculated for each compound using Prism software from GraphPad.

[5] = molecular target: immunoproteasome (LMP7/B5i) (Homo sapiens, UniProt P20618+P28062); assay: Caliper-based proteasome assay, immunoproteasome chymotrypsin-like activity; format: biochemical; conditions: human recombinant immunoproteasome 0.3 nM, FAM-labeled peptide substrate 1 μM, room temperature 3 h
Protocol: as §2

[6] = 30 minutes in culture, read-out: HT29 (30 min) IC50
[7] = 4 hours in culture, read-out: HT29 (4 h) IC50

| pIC50 [1] | pIC50 [2] | pIC50 [3] | pIC50 [4, 6] | pIC50 [4, 7] | pIC50 [5] | Structure (SMILES) |
| --- | --- | --- | --- | --- | --- | --- |
| 7.82 | 5.84 | 5.93 | < 5.30 | < 5.30 | 7.54 | Cc1ccc(CNC(=O)[C@H](Cc2cccc(N(C)C(=O)C(C#N)=CC(C)C)c2)NC(=O)[C@@H](NC(=O)c2cc(C)on2)[C@@H](C)O)cc1 [Example 25, N-((2S,3R)-1-(((S)-3-(3-(2-cyano-N,4-dimethylpent-2-enamido)phenyl)-1-((4-methylbenzyl)amino)-1-oxopropan-2-yl)amino)-3-hydroxy-1-oxobutan-2-yl)-5-methylisoxazole-3-carboxamide] |
| 7.89 | 6.83 | 6.44 | 5.42 | < 5.30 | 7.68 | Cc1ccc(CNC(=O)[C@H](Cc2cccc(N(C)C(=O)C(C#N)=CC(C)C)c2)NC(=O)[C@@H](NC(=O)c2cc(C)on2)[C@@H](C)O)c(F)c1 [Example 27, N-((2S,3R)-1-(((S)-3-(3-(2-cyano-N,4-dimethylpent-2-enamido)phenyl)-1-((2-fluoro-4-methylbenzyl)amino)-1-oxopropan-2-yl)amino)-3-hydroxy-1-oxobutan-2-yl)-5-methylisoxazole-3-carboxamide] |
|  | 5.67 |  |  |  | 7.96 | Cc1ccc(CNC(=O)[C@H](COc2cccc(C=C(C#N)C(=O)NC(C)(C)C)c2)NC(=O)[C@@H](NC(=O)c2cc(C)on2)[C@@H](C)O)c(F)c1 [Example 7, N-((2S,3R)-1-(((S)-3-(3-(3-(tert-butylamino)-2-cyano-3-oxoprop-1-en-1-yl)phenoxy)-1-((2-fluoro-4-methylbenzyl)amino)-1-oxopropan-2-yl)amino)-3-hydroxy-1-oxobutan-2-yl)-5-methylisoxazole-3-carboxamide] |
|  | 6.15 |  |  |  | 7.43 | Cc1ccc(CNC(=O)[C@H](CCCCN(C)C(=O)C(C#N)=CC(C)C)NC(=O)[C@@H](NC(=O)c2cc(C)on2)[C@@H](C)O)cc1 [Example 22, N-((2S,3R)-1-(((S)-6-(2-cyano-N,4-dimethylpent-2-enamido)-1-((4-methylbenzyl)-amino)-1-oxohexan-2-yl)amino)-3-hydroxy-1-oxobutan-2-yl)-5-methylisoxazole-3-carboxamide] |
| 7.64 | 6.84 | 6.19 | < 5.30 |  | 8.30 | Cc1ccc(CNC(=O)[C@H](CCCCNC(=O)C(C#N)=CC(C)C)NC(=O)[C@@H](NC(=O)c2cc(C)on2)[C@@H](C)O)cc1 [Example 21, N-((2S,3R)-1-(((S)-6-(2-cyano-4-methylpent-2-enamido)-1-((4-methylbenzyl)-amino)-1-oxohexan-2-yl)amino)-3-hydroxy-1-oxobutan-2-yl)-5-methylisoxazole-3-carboxamide] |
|  | 5.40 |  |  |  | 6.84 | Cc1ccc(CNC(=O)[C@H](CCCCNC(=O)C(C#N)=CC(C)(C)C)NC(=O)[C@@H](C)NC(=O)c2cc(C)on2)cc1 [Example 21d, N—((R)-1-(((S)-6-(2-cyano-4,4-dimethylpent-2-enamido)-1-((4-methylbenzyl)amino)-1-oxohexan-2-yl)amino)-1-oxopropan-2-yl)-5-methylisoxazole-3-carboxamide] |
| 7.89 | 7.21 | 7.08 | < 5.30 | < 5.30 | 7.70 | Cc1ccc(CNC(=O)[C@H](CCc2cccc(C=C(C#N)C(=O)N(C)C)c2)NC(=O)[C@@H](NC(=O)c2cc(C)on2)[C@@H](C)O)cc1 [Example 15, N-((2S,3R)-1-(((S)-4-(3-(2-cyano-3-(dimethylamino)-3-oxoprop-1-en-1-yl)phenyl)-1-((4-methylbenzyl)amino)-1-oxobutan-2-yl)amino)-3-hydroxy-1-oxobutan-2-yl)-5-methylisoxazole-3-carboxamide] |
|  | 6.56 |  |  |  | 7.51 | Cc1ccc(CNC(=O)[C@H](COc2cccc(C=C(C#N)C(=O)N(C)C)c2)NC(=O)[C@@H](NC(=O)c2cc(C)on2)[C@@H](C)O)cc1 [Example 1, N-((2S,3R)-1-(((S)-3-(3-(2-cyano-3-(dimethylamino)-3-oxoprop-1-en-1-yl)phenoxy)-1-((4-methylbenzyl)amino)-1-oxopropan-2-yl)amino)-3-hydroxy-1-oxobutan-2-yl)-5-methylisoxazole-3-carboxamide] |
| 8.00 | 6.92 | 6.70 | 6.24 | < 5.30 | 7.77 | Cc1ccc(CNC(=O)[C@H](COc2cccc(C=C(C#N)n3cncn3)c2)NC(=O)[C@@H](NC(=O)c2cc(C)on2)[C@@H](C)O)cc1 [Example 8a, N-((2S,3R)-1-(((S)-3-(3-(2-cyano-2-(1H-1,2,4-triazol-1-yl)vinyl)phenoxy)-1-((4-methylbenzyl)amino)-1-oxopropan-2-yl)amino)-3-hydroxy-1-oxobutan-2-yl)-5-methylisoxazole-3-carboxamide] |
|  | 6.10 |  |  |  | 6.99 | Cc1ccc(CNC(=O)[C@H](CC2CCN(C(=O)C(C#N)=CC(C)C)CC2)NC(=O)[C@@H](NC(=O)c2cc(C)on2)[C@@H](C)O)cc1 [Example 29, N-((2S,3R)-1-(((S)-3-(1-(2-cyano-4-methylpent-2-enoyl)piperidin-4-yl)-1-((4-methylbenzyl)amino)-1-oxopropan-2-yl)amino)-3-hydroxy-1-oxobutan-2-yl)-5-methylisoxazole-3-carboxamide] |
|  | 5.49 |  |  |  | 7.19 | Cc1ccc(CNC(=O)[C@H](Cc2cccc(NC(=O)C(C#N)=CC(C)C)c2)NC(=O)[C@@H](NC(=O)c2cc(C)on2)[C@@H](C)O)cc1 [Example 24, N-((2S,3R)-1-(((S)-3-(3-(2-cyano-4-methylpent-2-enamido)phenyl)-1-((4-methyl-benzyl)amino)-1-oxopropan-2-yl)amino)-3-hydroxy-1-oxobutan-2-yl)-5-methylisoxazole-3-carboxamide] |
